From article PMC6366974, “The curcumin analog EF24 is a novel senolytic agent” (Aging (Albany NY), 2019)

System: WI-38 NCs
Test: Apoptosis analysis (Annexin-V/PI flow cytometry)
Assay type: cell-based, human
Details: 2 µM, 72 h
Experimental: WI-38 NCs and SCs were treated with vehicle or 10 µM Q-VD-OPh (QVD, Cat. No. S7311, Selleckchem, Houston, TX, USA) for 4 h prior to the addition of vehicle or 2 µM EF24 for 72 h. The suspending cells were first harvested from the culture and then pooled with the adherent cells detached by 0.25% Trypsin-EDTA at 37°C for 5 min in 12 × 75 mm polystyrene round-bottom tubes (Cat. No. 352058, Falcon, Corning, NY, USA) containing complete DMEM medium. The cells were stained with Alexa Fluor 647-Annexin V (1: 50, Cat. No. 640912, BioLegend, San Diego, CA, USA) and PI (10 µg/mL, Cat. No. 421301, BioLegend, San Diego, CA, USA) at room temperature for 30 min. The stained cells were analyzed using a BD LSR II flow cytometer.

O=C1/C(=C/c2ccccc2F)CNC/C1=C\c1ccccc1F [EF24]
induction of apoptosis in NCs: did not induce apoptosis
